Test results as given in patent US10550130B2, “Benzo-thiazolo-imidazole compounds and uses thereof” (KING SAUD UNIVERSITY, priority 2015, dated 2020).

Assays:
intracellular Notch-1 = experiment: Immunofluorescence of intracellular Notch-1 in MDA-MB-231 breast cancer cells; format: cell-based; conditions: MDA-MB-231 cells; 0.01, 0.1, 1 or 10 μM
Procedure: (§1) MDA-MB-231 breast cancer cells were treated either with vehicle (control) or with 0.01 μM, 0.1 μM, 1 μM or 10 μM final concentration of doxorubicin, taxotere or KSA-101696. Then, the cells were cytospun to glass slides by centrifugation at 800 rpm for 3 min. Slides were then air-dried overnight and 4% formaldehyde fixed for 10 min. For staining, the cell membrane was permeabilized with 0.5% triton-X (Sigma) followed by overnight incubation with primary antibodies (anti-Numb, Abcam) and (anti-intracellular Notch-1, Cell Signalling) at 1:100. Cells were washed and stained with AlexaFluor goat anti-rabbit IgG 488 (Invitrogenat) 1:400 for 30 minutes. 300 nM DAPI (Invitrogen, Carlsbad, Calif., USA) was added for 10 minutes to counterstain the nuclei. Slides were mounted and immunofluorescence was visualized using BD Pathway 855 microscope.
(§2) Numb exerts its functional role on cell fate decisions by antagonizing Notch signaling activities. The molecular mechanisms underlying this relationship appear to rely on the ubiquitination of the membrane bound Notch-1 receptor and the subsequent degradation of its NICD (Notch intracellular domain) following receptor activation.

[1] = Determination of LD50 value; conditions: male, Swiss Webster Albino, mouse, in vivo, ip
Procedure: Swiss Webster Albino mice were housed in groups of 2 or 4 in elevated steel wire-mesh cages in a controlled room maintained at a temperature of 22±2° C., relative humidity of 50±10% and a 12 h light-dark cycle. Rodent diet chow (feed) provided by Grain Silos Flour Mills Organization, Riyadh, Saudi Arabia, and tap water for drinking were made available ad lib.
Male mice were divided into various groups (n=10 animals per group). Each group was administered a different dose of the respective compound via the intraperitoneal (i.p.) route. The dose range used was 100-5000 mg/kg.
During the observation periods there was a continuous record of any behavioral changes and clinical symptoms that caused by effects on the central and autonomic nervous systems, the respiratory and the cardiovascular systems or any other action on the gastrointestinal tract, the renal systems, eye, skin, skeletal muscles etc.
During the 72 hour observation period the number of animals that died in every group was recorded. The percentage of death calculated and converted to probits to calculate the LD50 value for each compound in mg/kg. The LD50 value reported in this study provided compounds in their liquid form in the provided concentrations.

Numb = experiment: Immunofluorescence of Numb in MDA-MB-231 breast cancer cells; format: cell-based; conditions: MDA-MB-231 cells; 0.01, 0.1, 1 or 10 μM
Procedure: as §1, §2

Compound	Notch self-renewal pathway (intracellular Notch-1)	LD50 at 72 h [1] [mg/kg]	Numb expression (immunofluorescence microscopy) (Numb)
COc1cccc2c1C(=O)c1c(O)c3c(c(O)c1C2=O)C[C@@](O)(C(=O)CO)C[C@@H]3O[C@H]1C[C@H](N)[C@H](O)[C@H](C)O1 [Doxorubicin]	activated the Notch self-renewal pathway	60	inhibited Numb expression
CC(=O)O[C@@]12CO[C@@H]1C[C@H](O)[C@@]1(C)C(=O)[C@H](O)C3=C(C)[C@@H](OC(=O)[C@H](O)[C@@H](NC(=O)OC(C)(C)C)c4ccccc4)C[C@@](O)([C@@H](OC(=O)c4ccccc4)[C@H]21)C3(C)C [taxotere]	activated the Notch self-renewal pathway		inhibited Numb expression
